System: Vero-E6 cells
Experiment: cells
Assay type: cell-based
Conditions: for activation at 10 µM: Chlorocebus sabaeus, Vero C1008, 24 h, read-out: PL_Result

Row | Compound | activation at 10 µM [%] | PL_Result
1 | C=C(c1ccc(C(=O)O)cc1)c1cc2c(cc1C)C(C)(C)CCC2(C)C [SPE_K92441787] | -8.8 | –
2 | COc1ccc(-c2sc(NC(=O)C(C)(C)C)nc2C)cc1S(=O)(=O)Nc1ccc(O)cc1 [SPE_K75528696] | 21.7 | –
3 | CC[n+]1c(-c2ccccc2)c2cc(N)ccc2c2ccc(N)cc21 [SPE_K28354016] | 9.76 | –
4 | O=C(O)[C@H](Cc1c[nH]c2ccccc12)N1C(=O)c2ccccc2C1=O [SPE_K89391146] | -6.19 | –
5 | COc1cc(NS(=O)(=O)c2ccc(N)cc2)ncn1 [SPE_K14116214] | -1.27 | –
6 | O=C(NCc1ccc(F)cc1)N1CCN2C(=O)OC(c3ccccc3)(c3ccccc3)C2C1 (stereo not shown) [SPE_A63344375] | -2.64 | –
7 | Ac-PHSCN-NH2 [SPE_K00521308] | – | -0.965
8 | C=C[C@@H]1C[C@]1(NC(=O)[C@@H]1C[C@@H](Oc2ncc(OC)c3ccc(Cl)cc23)CN1C(=O)[C@@H](NC(=O)OC(C)(C)C)C(C)(C)C)C(=O)NS(=O)(=O)C1CC1 [SPE_K87028197] | -0.0254 | –
9 | CC(C)(C)NCC(O)c1ccccc1Cl (stereo not shown) [SPE_A37441042] | 4.82 | –
10 | Cc1cc(N2CCCCC2)nc2ccccc12 [SPE_K80021413] | -1.3 | –
11 | COc1ccc2cc3[n+](cc2c1OC)CCc1cc2c(cc1-3)OCO2 [SPE_K14796088] | -2.9 | –
12 | O=S(=O)(Cc1ccccc1)Nc1ccc(-c2ccc3c(cnn3-c3ccc(F)cc3)c2)c(C(F)(F)F)c1 [SPE_K29328421] | -4.77 | –
13 | Clc1ccc(C(OCCN2CCCCC2)c2ccccc2)cc1 (stereo not shown) [SPE_A80908310] | 72.5 | –
14 | CC(C(=O)O)c1cccc(Oc2ccccc2)c1 (stereo not shown) [SPE_A81129465] | 5.17 | –
15 | CCOC(=O)c1cc2ccc(O)cc2oc1=O [SPE_K53438416] | -0.478 | –
16 | COc1ccc(NS(=O)(=O)c2ccc(I)cc2)cc1N1CCN(C)CC1 [SPE_K80639402] | 17.6 | –
17 | CN1CCC(=C2c3ccccc3CC(=O)c3sccc32)CC1 [SPE_K28936863] | -4.71 | –

Row | Compound | activation at 10 µM [%] | PL_Result
18 | C=CCN1C[C@H](C)N([C@H](c2ccc(C(=O)N(CC)CC)cc2)c2cccc(OC)c2)C[C@H]1C [SPE_K29546239] | 1.37 | –
19 | Oc1cc(O)cc(/C=C/c2ccc(O)c(O)c2)c1 [SPE_K91509126] | 9.23 | –
20 | CCCN(CCC)C(=O)Cc1c(-c2ccc(Cl)cc2)nc2ccc(Cl)cn12 [SPE_K66896751] | -0.969 | –
21 | CN1Cc2c(C(=O)OC(C)(C)C)ncn2-c2ccsc2C1=O [SPE_K80778372] | 4.64 | –
22 | CC(=O)OCC(=O)NCCCOc1cccc(CN2CCCCC2)c1 [SPE_K81855038] | -10.7 | –
23 | C[C@]12CC[C@H]3[C@@H](CCC4=CC(=O)CC[C@@H]43)[C@@H]1CC[C@@H]2O [SPE_K52080565] | -3.9 | –
24 | C[C@@H](c1ccc2nccn2c1)n1nnc2ncc(-c3cnn(C)c3)nc21 [SPE_K98028353] | -4.44 | –
25 | CCc1ccc2c(-c3cccc(Cl)c3)nc(=O)n(CC)c2n1 [SPE_K12932420] | 0.000931 | –
26 | CCN1C[C@H](C)n2c(c(O)c3c(=O)n(Cc4ccc(F)c(Cl)c4)nc(C(=O)NC)c32)C1=O [SPE_K03128512] | 7.85 | –
27 | Cc1[nH]cnc1CN1CCc2c(c3ccccc3n2C)C1=O [SPE_K46742498] | 6.83 | –
28 | COc1cc(/C=C/C(=O)O)ccc1O [SPE_K66295376] | -10.8 | –
29 | Nc1nnc2[nH]c3ccccc3nc1-2 [SPE_K87932577] | -2.99 | –
30 | Cn1cccc1/C=C1\C(=O)NC(=O)c2ccccc21 [SPE_K61665160] | -5.42 | –
31 | C[C@H](NC(=O)CNC(=O)c1cccc(Cl)c1)c1ccccc1 [SPE_K19482962] | -10.5 | –
32 | Nc1ccc(S(=O)(=O)Nc2ccnn2-c2ccccc2)cc1 [SPE_K10671814] | -1.85 | –
33 | O=C1NC(c2cccc([N+](=O)[O-])c2)=CCN1c1ccccc1O [SPE_K48869804] | 1.47 | –
34 | COc1ccc(COc2cc3oc(=O)c4cc(C(C)O)ccc4c3cc2OC)cc1 (stereo not shown) [SPE_A50998626] | -7.77 | –
